In the assay the target is T1, human GPR119 (Homo sapiens, UniProt Q8TDV5).
T1 construct: expressed in transfected cells
T1 sequence (Q8TDV5 1-335): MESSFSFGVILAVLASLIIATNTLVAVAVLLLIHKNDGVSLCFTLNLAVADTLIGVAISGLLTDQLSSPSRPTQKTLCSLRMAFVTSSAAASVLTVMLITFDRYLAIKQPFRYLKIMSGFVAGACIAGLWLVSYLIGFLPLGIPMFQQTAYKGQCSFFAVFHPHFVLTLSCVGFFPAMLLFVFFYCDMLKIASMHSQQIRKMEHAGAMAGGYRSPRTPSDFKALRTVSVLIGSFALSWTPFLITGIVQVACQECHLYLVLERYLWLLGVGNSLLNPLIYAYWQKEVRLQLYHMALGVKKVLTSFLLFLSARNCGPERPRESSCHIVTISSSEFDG
Description: Functional cellular assay measuring GPR119-mediated cAMP release (HTRF) in HEK-293 cells stably expressing recombinant human GPR119. Type of assay: cell-based. The following applies: cAMP response, cell line expressing human GPR119, 30 minutes at room temperature. In short, it runs like this: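 HEK-293 cells stably expressing recombinant human GPR119, suspended at 400000 cells/mL in HBSS/20 mM HEPES/0.1% BSA/2 mM IBMX, exposed to compound for 30 minutes at room temperature. cAMP detected by HTRF (665/620 nm ratio) after 1 h with reagents in lysis buffer. EC50 taken as concentration giving 50% of maximal activation.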
On to `CN(C)C(=O)CN1Cc2ccc(N3CC[C@@H](Oc4ccc(OC(F)(F)F)c(Cl)c4)C3=O)cc2C1=O` [Example 2-41, 2-[6-[(3R)-3-[3-chloro-4-(trifluoromethoxy)phenoxy]-2-oxo-pyrrolidin-1-yl]-1-oxo-isoindolin-2-yl]-N,N-dimethyl-acetamide], for which the concentration for a half-maximal effect (EC50) turned out to be 470 nM. On to `CN(C)C(=O)CN1Cc2ccc(N3CC[C@@H](Oc4ccc(-c5nccs5)cc4)C3=O)cc2C1=O` [Example 2-42, N,N-dimethyl-2-[1-oxo-6-[(3R)-2-oxo-3-(4-thiazol-2-ylphenoxy)pyrrolidin-1-yl]isoindolin-2-yl]acetamide], for which the 50% effective concentration (EC50) was found to be 117 nM. As to `Cc1noc(COc2ccc(O[C@@H]3CCN(c4ccc5c(c4)C(=O)N(CC(=O)N(C)C)C5)C3=O)cc2)n1` [Example 2-43, N,N-dimethyl-2-[6-[(3R)-3-[4-[(3-methyl-1,2,4-oxadiazol-5-yl)methoxy]phenoxy]-2-oxo-pyrrolidin-1-yl]-1-oxo-isoindolin-2-yl]acetamide], the half-maximal effective concentration (EC50) turned out to be 1500 nM.

Consider `CN(C)C(=O)CN1Cc2ccc(N3CC[C@@H](Oc4ccc(-n5cnnn5)cc4)C3=O)cc2C1=O` [Example 2-44, N,N-dimethyl-2-[1-oxo-6-[(3R)-2-oxo-3-[4-(tetrazol-1-yl)phenoxy]pyrrolidin-1-yl]isoindolin-2-yl]acetamide], for which the EC50 worked out at 14700 nM. Regarding `CCOC(=O)CCc1cc(O[C@@H]2CCN(c3ccc4c(c3)C(=O)N(CC(=O)N(C)C)C4)C2=O)ccc1Cl` [Example 2-45, ethyl 3-[2-chloro-5-[(3R)-1-[2-[2-(dimethylamino)-2-oxo-ethyl]-3-oxo-isoindolin-5-yl]-2-oxo-pyrrolidin-3-yl]oxy-phenyl]propanoate], the EC50 came to 1510 nM. For `CN(C)C(=O)CN1Cc2ccc(N3CC[C@@H](Oc4ccc(N5CCCC5)cc4)C3=O)cc2C1=O` [Example 2-46, N,N-dimethyl-2-[1-oxo-6-[(3R)-2-oxo-3-(4-pyrrolidin-1-ylphenoxy)pyrrolidin-1-yl]isoindolin-2-yl]acetamide], the 50% effective concentration (EC50) worked out at 6370 nM. On to `CN(C)C(=O)CN1Cc2ccc(N3CC[C@@H](Oc4cnc(OCC5CC5)c(Br)c4)C3=O)cc2C1=O` [Example 2-47, 2-[6-[(3R)-3-[[5-bromo-6-(cyclopropylmethoxy)-3-pyridyl]oxy]-2-oxo-pyrrolidin-1-yl]-1-oxo-isoindolin-2-yl]-N,N-dimethyl-acetamide], for which the EC50 was 90 nM.

For `CN(C)C(=O)CN1Cc2ccc(N3CC[C@@H](Oc4ccc(C(=O)C5CC5)cc4)C3=O)cc2C1=O` [Example 2-48, 2-[6-[(3R)-3-[4-(cyclopropanecarbonyl)phenoxy]-2-oxo-pyrrolidin-1-yl]-1-oxo-isoindolin-2-yl]-N,N-dimethyl-acetamide], the 50% effective concentration (EC50) was 202 nM. For the molecule `CC1(C(=O)c2ccc(O[C@@H]3CCN(c4ccc5c(c4)C(=O)N(CC(N)=O)C5)C3=O)cn2)CC1` [Example 2-49, 2-[6-[(3R)-3-[[6-(1-methylcyclopropanecarbonyl)-3-pyridyl]oxy]-2-oxo-pyrrolidin-1-yl]-1-oxo-isoindolin-2-yl]acetamide], the EC50 was 424 nM.

For `NC(=O)CN1Cc2ccc(N3CC[C@@H](Oc4ccc(C(=O)c5ccc(F)cc5)cc4)C3=O)cc2C1=O` [Example 2-50, 2-[6-[(3R)-3-[4-(4-fluorobenzoyl)phenoxy]-2-oxo-pyrrolidin-1-yl]-1-oxo-isoindolin-2-yl]acetamide], the concentration for a half-maximal effect (EC50) was determined as 102 nM. As for `NC(=O)CN1Cc2ccc(N3CC[C@@H](Oc4ccc(-c5nccs5)cc4)C3=O)cc2C1=O` [Example 2-51, 2-[1-oxo-6-[(3R)-2-oxo-3-(4-thiazol-2-ylphenoxy)pyrrolidin-1-yl]isoindolin-2-yl]acetamide], the EC50 amounted to 126 nM. The value for `NC(=O)CN1Cc2ccc(N3CC[C@@H](Oc4ccc(C(=O)C5CC5)nc4)C3=O)cc2C1=O` [Example 2-52, 2-[6-[(3R)-3-[[6-(cyclopropanecarbonyl)-3-pyridyl]oxy]-2-oxo-pyrrolidin-1-yl]-1-oxo-isoindolin-2-yl]acetamide] was 207 nM; that for `NC(=O)CN1Cc2ccc(N3CC[C@@H](Oc4ccc(C(=O)C5CC5)cc4)C3=O)cc2C1=O` [Example 2-53, 2-[6-[(3R)-3-[4-(cyclopropanecarbonyl)phenoxy]-2-oxo-pyrrolidin-1-yl]-1-oxo-isoindolin-2-yl]acetamide] was 130 nM.

For `CCCCC(=O)c1ccc(O[C@@H]2CCN(c3ccc4c(c3)C(=O)N(CC(N)=O)C4)C2=O)cc1` [Example 2-54, 2-[1-oxo-6-[(3R)-2-oxo-3-(4-pentanoylphenoxy)pyrrolidin-1-yl]isoindolin-2-yl]acetamide], the 50% effective concentration (EC50) amounted to 38 nM. On to `CC1(C(=O)c2ccc(O[C@@H]3CCN(c4ccc5c(c4)C(=O)N(CC(N)=O)C5)C3=O)cc2)CC1` [Example 2-55, 2-[6-[(3R)-3-[4-(1-methylcyclopropanecarbonyl)phenoxy]-2-oxo-pyrrolidin-1-yl]-1-oxo-isoindolin-2-yl]acetamide], for which the EC50 turned out to be 207 nM. The value for `NC(=O)CN1Cc2ccc(N3CC[C@@H](Oc4ccc(C(=O)CCC5CC5)nc4)C3=O)cc2C1=O` [Example 2-56, 2-[6-[(3R)-3-[[6-(3-cyclopropylpropanoyl)-3-pyridyl]oxy]-2-oxo-pyrrolidin-1-yl]-1-oxo-isoindolin-2-yl]acetamide] was 34 nM; that for `CN(C)C(=O)CN1Cc2ccc(N3CC[C@@H](Oc4ccc(C(=O)CCC5CC5)nc4)C3=O)cc2C1=O` [Example 2-57, 2-[6-[(3R)-3-[[6-(3-cyclopropylpropanoyl)-3-pyridyl]oxy]-2-oxo-pyrrolidin-1-yl]-1-oxo-isoindolin-2-yl]-N,N-dimethyl-acetamide] was 50 nM.

In the case of `CN(C)C(=O)CN1Cc2ccc(N3CC[C@@H](Oc4ccc(C(=O)C5CC5)nc4)C3=O)cc2C1=O` [Example 2-58, 2-[6-[(3R)-3-[[6-(cyclopropanecarbonyl)-3-pyridyl]oxy]-2-oxo-pyrrolidin-1-yl]-1-oxo-isoindolin-2-yl]-N,N-dimethyl-acetamide], the EC50 stood at 251 nM. The value for `CN(C)C(=O)CN1Cc2ccc(N3CC[C@@H](Oc4ccc(C(=O)C5(C)CC5)nc4)C3=O)cc2C1=O` [Example 2-59, N,N-dimethyl-2-[6-[(3R)-3-[[6-(1-methylcyclopropanecarbonyl)-3-pyridyl]oxy]-2-oxo-pyrrolidin-1-yl]-1-oxo-isoindolin-2-yl]acetamide] was 330 nM; that for `Cc1cnc(-c2ccc(O[C@@H]3CCN(c4ccc5c(c4)C(=O)N(CC(=O)N(C)C)C5)C3=O)cn2)s1` [Example 2-60, N,N-dimethyl-2-[6-[(3R)-3-[[6-(5-methylthiazol-2-yl)-3-pyridyl]oxy]-2-oxo-pyrrolidin-1-yl]-1-oxo-isoindolin-2-yl]acetamide] was 97 nM. For the molecule `CN(C)C(=O)CN1Cc2ccc(N3CC[C@@H](Oc4ccc(C(=O)c5ccc(F)cc5)nc4)C3=O)cc2C1=O` [Example 2-61, 2-[6-[(3R)-3-[[6-(4-fluorobenzoyl)-3-pyridyl]oxy]-2-oxo-pyrrolidin-1-yl]-1-oxo-isoindolin-2-yl]-N,N-dimethyl-acetamide], the concentration giving a half-maximal response (EC50) was 106 nM. The value for `CN(C)C(=O)CN1Cc2ccc(N3CC[C@@H](Oc4ccc(C(=O)C5CC5)c(F)c4)C3=O)cc2C1=O` [Example 2-62, 2-[6-[(3R)-3-[4-(cyclopropanecarbonyl)-3-fluoro-phenoxy]-2-oxo-pyrrolidin-1-yl]-1-oxo-isoindolin-2-yl]-N,N-dimethyl-acetamide] was 59 nM; that for `CN(C)C(=O)CN1Cc2ccc(N3CC[C@@H](Oc4ccc(C(=O)C5CC(F)(F)C5)cc4)C3=O)cc2C1=O` [Example 2-63, 2-[6-[(3R)-3-[4-(3,3-difluorocyclobutanecarbonyl)phenoxy]-2-oxo-pyrrolidin-1-yl]-1-oxo-isoindolin-2-yl]-N,N-dimethyl-acetamide] was 98 nM. The value for `CN(C)C(=O)CN1Cc2ccc(N3CC[C@@H](Oc4ccc(-c5ncc(F)s5)cc4)C3=O)cc2C1=O` [Example 2-64, 2-[6-[(3R)-3-[4-(5-fluorothiazol-2-yl)phenoxy]-2-oxo-pyrrolidin-1-yl]-1-oxo-isoindolin-2-yl]-N,N-dimethyl-acetamide] was 38 nM; that for `CN(C)C(=O)CN1Cc2ccc(N3CC[C@@H](Oc4ccc(C(=O)C5CC5(F)F)cc4)C3=O)cc2C1=O` (stereo partly drawn) [Example 2-65, 2-[6-[(3R)-3-[4-(2,2-difluorocyclopropanecarbonyl)phenoxy]-2-oxo-pyrrolidin-1-yl]-1-oxo-isoindolin-2-yl]-N,N-dimethyl-acetamide] was 125 nM.

In the case of `CN(C)C(=O)CN1Cc2ccc(N3CC[C@@H](Oc4ccc(C(=O)CCC(F)(F)F)cc4)C3=O)cc2C1=O` [Example 2-66, N,N-dimethyl-2-[1-oxo-6-[(3R)-2-oxo-3-[4-(4,4,4-trifluorobutanoyl)phenoxy]pyrrolidin-1-yl]isoindolin-2-yl]acetamide], the half-maximal effective concentration (EC50) was found to be 52 nM. As for `O=C(O)CN1Cc2c(F)cc(N3CC[C@@H](Oc4ccc(OCC5CC5)nc4)C3=O)cc2C1=O` [Example 3-01, 2-[6-[(3R)-3-[[6-(cyclopropylmethoxy)-3-pyridyl]oxy]-2-oxo-pyrrolidin-1-yl]-4-fluoro-1-oxo-isoindolin-2-yl]acetic acid], the 50% effective concentration (EC50) is 1050 nM. The value for `O=C(O)CN1Cc2ccc(N3CC[C@@H](Oc4ccc(OCC5CC5)nc4)C3=O)cc2C1=O` [Example 3-02, 2-[6-[(3R)-3-[[6-(cyclopropylmethoxy)-3-pyridyl]oxy]-2-oxo-pyrrolidin-1-yl]-1-oxo-isoindolin-2-yl]acetic acid] was 443 nM.

These data come from patent publication US9908868B2, “Isoindolinone compounds as GPR119 modulators for the treatment of diabetes, obesity, dyslipidemia and related disorders” (SANOFI, priority 2014, dated 2018).
